# Experimental data taken from US7033582B2 (Teva Pharmaceutical Industries, Ltd., priority 2000, dated 2006).
# “Also recorded” adds a separate entry of the source. Like-named read-outs stand apart in the source and are kept apart here.
# What was measured:
# EAE = conditions: in vivo; cited from earlier work
# MMP-9 = experiment: MMP enzyme activity in gelatin zymography, test agent in wash and reaction buffer; format: biochemical, Baby Hamster Kidney (BHK) cells and human T lymphocytes; conditions: agent in incubation buffers during zymogram development; MMP-9 from BHK cells or T lymphocytes
# Text: The analysis of cell conditioned medium in zymography is a reflection of the amount of MMPs that was produced by the particular culture. […] An inhibitor of MMP activity prevents gelatin degradation by gelatinases and the resultant size of the band of gelatinases would be smaller as compared to that obtained in the absence of inhibitors.
# [1] = tested on: lymphocytes from relapsing-remitting multiple sclerosis patients; conditions: patients on Copolymer 1 compared to untreated multiple sclerosis patients; cited from earlier work
# [2] = tested on: T lymphocyte - U937 co-culture; conditions: pretreatment of the PMA/IFNγ-treated U937 cells instead of T lymphocytes
# Method: (§1) Cells were left for 69 h at 37° C., then collected, counted and resuspended in fresh AIM-V at density of 500,000 cells per ml. […] Thereafter, 500 μl (250,000 cells) of the suspension was taken for migration assays described below. Alternatively, 100 μl (50,000 cells) of cell suspension was added to each individual well of a 96-well plate already containing microglia or U937 monocytoid cells (see below).
# A human promonocytoid cell line, U937, was also employed. Members of this cell line become microglia-like, as assessed by morphology and expression of cell surface molecules, when treated sequentially with 50 ng/ml of a protein kinase C activator, phorbol-12-myristate-13-acetate (PMA) (time 0–48) and 100 U/ml interferon-γ (IFNγ) (from 48–72 h).
# Cells were used 1–3 days after the IFNγ treatment. As with microglia, 50,000 T lymphocytes in AIM-V was added to individual wells of a 96-well plate already containing 25,000 PMA/IFNγ-treated U937 cells, and conditioned medium was collected after 24 h of co-cultures.
# (§2) Cytokine protein levels in the conditioned medium of microglia-T lymphocyte co-cultures were measured using enzyme-linked immunoabsorbent assay (ELISA) kits bought from BioSource International (Montreal, Canada).
# [3] = tested on: MMP-9 production by monocytes; conditions: after 1 day of treatment
# Method: To produce monocyte-enriched cultures, 2×10^5 PBMC were suspended in 100 μl of AIM-V medium and placed into each well of a 96-well plate. One hour after, floating cells were removed to leave behind adherent monocytes. Fresh 100 μl of AIM-V was added per well and cultures were kept at 37° C.
# Supernatant was collected, mixed in a 3.1 ratio (v/v) with 4× gel-loading SDS buffer, and used in zymographic assays. Similarly, for monocytes in wells of 96-well plates, conditioned medium was collected, microfuged, and mixed with 4× gel-loading SDS buffer.
# Zymography is essentially SDS-PAGE except that gelatin is also added to the gel (77, 82). After proteins were resolved based on molecular weight in SDS-PAGE, the gel was washed in a Triton X-100 buffer in order to remove SDS which thus allows protein renaturation. In a calcium-containing “reaction buffer” (77), gelatinases (MMP-2 and -9) degraded gelatin in their immediate vicinity (other members of MMPs would also be detected if present in high amounts). Following staining in Coommasie blue, which binds all proteins, and destaining , areas containing gelatinases appeared as clear bands against a dark background, since the gelatin in its immediate vicinity has been degraded. The size of the MMP bands was a reflection of the amount of MMP that was produced by cells, and this was documented by NIH image analysis software.
# T lymphocytes [4] = experiment: Migration assay across fibronectin-coated Boyden chamber; format: cell-based, human
# Method: as §1
# To address the migration capacity of T lymphocytes, 2×10^5 T lymphocytes in 500 μl of 2.5% fetal calf serum (FCS) containing AIM-V were seeded into the top compartment of a Boyden chamber (Collaborative Biomedical Products, Bedford, Md.). This chamber consists of two compartments separated by a polycarbonate membrane filter (9 mm in diameter, with 3 μm pores) precoated on its upper surface with fibronectin. Fibronectin was employed to simulate the basal lamina.
# The bottom compartment of the migration chamber contained 10% FCS-supplemented AIM-V; the higher concentration of FCS in the bottom chamber served as a directional gradient (77). After 5 h at 37° C., the content of the lower chamber was collected, and the number of migrated T lymphocytes was counted with the Coulter Counter Z1.
# experimental GVHD = conditions: higher doses and/or more frequent administration; mice; cited from earlier work
# T lymphocytes [5] = conditions: for total number of cells after 72 h: control 24±2
# Method: (§3) Heparinized blood was collected from normal volunteers, and subjected to Ficoll-Hypaque (Pharmacia Biotech, Mississauga, Ontario) centrifugation to obtain peripheral blood mononuclear cells (PEMNCs) as described previously (15). After two washes, cells were suspended at a density of 1–2 million/ml in horizontal T-25 flasks (Nunc, Becton Dickinson, Mississauga, Ontario) in the serum free medium, AIM-V (GIBCO/BRL), to which 1 ng/ml of an anti-CD3 antibody (OKT3, compliments of Jack Antel, Montreal, Canada) was added. Three hours after the anti-CD3 addition, the T-25 flasks were stood upright from their horizontal position in order to […] monocytes that had adhered. Floating cells, which were mostly lymphocytes, were left for a period of 72 hours at 37° C. […] Henceforth, given that the majority of cells in the MNC population are T lymphocytes, these will be referred to as T lymphocytes.
# as §1
# [6] = tested on: CXCR3 and CXCR4 on U937 cells; conditions: 25 μg/ml, 1 or 3 days
# Text: Chemokine and chemokine receptor expression are currently recognized to be important mechanisms that regulate the influx of leukocytes into the CNS. Notable is the up-regulation of the chemokine IP-10 and its receptor CXCR3 in the lesions of multiple sclerosis patients (74).
# MHC class II molecules = conditions: irrespective of MHC restriction, dose-dependent; cited from earlier work
# [7] = tested on: T lymphocyte - adult human microglia co-culture; conditions: added at the time of co-culture instead of pretreatment
# Method: as §1
# Adult human microglia were isolated from the resected brain tissue of patients undergoing surgical resection to treat intractable epilepsy. […] Cells were used for interactions with T lymphocytes in a manner identical to that described for their fetal counter parts.
# as §2
# T-cell responses to MBP = conditions: dose-dependent; cited from earlier work
# [8] = tested on: MMP-9 production by T lymphocytes; experiment: MMP-9 production by anti-CD3 activated T lymphocytes (zymography of conditioned medium); format: cell-based, human; conditions: 25 μg/ml, for 1, 2 or 3 d
# Method: as §3, §1
molecule,measurement,setting,value
C=CC[C@H](C(=O)NO)[C@@H](CC(C)C)C(=O)N[C@@H](Cc1ccccc1)C(=O)NC [BB-1101],incidence and severity of EAE,EAE,alleviate
CNC(=O)[C@H](Cc1c[nH]c2ccccc12)NC(=O)[C@@H](CC(=O)NO)CC(C)C [GM6001],incidence and severity of EAE,EAE,alleviate
CNC(=O)[C@@H](NC(=O)[C@@H](CC(=O)NO)CC(C)C)C(C)(C)C [Ro31-9790],incidence and severity of EAE,EAE,alleviate
c1cnc2c(c1)ccc1cccnc12 [phenanthroline],inhibition of MMP-9 enzymatic activity (size of gelatinase band in zymogram),MMP-9,inhibit MMP activity
"L-glutamic acid polymer with L-alanine, L-lysine and L-tyrosine, acetate (salt) [Copolymer 1]",capacity of lymphocytes to transmigrate across a fibronectin barrier,[1],significantly reduced
same,cytokine production in subsequent T lymphocyte - U937 interactions,[2],did not influence
same,inhibition of MMP-9 enzymatic activity (size of gelatinase band in zymogram),MMP-9,dose-dependently reduced; also recorded: inhibits
same,monocyte production of MMP-9,[3],unaffected
same,migration rate of pre-treated T lymphocytes versus controls,T lymphocytes [4]; 10 ng/ml MCP-1 or MCP-3 in bottom chamber as chemotactic signal,did not differ
same,migration of T lymphocytes across fibronectin barrier compared to controls,"T lymphocytes [4]; 25 μg/ml pretreatment for 1, 2 or 3 days",did not inhibit; also recorded: did not affect
same,transmigration of activated T lymphocytes,"T lymphocytes [4]; 3-day pretreatment, various concentrations 1 to 50 μg/ml",did not affect
same,experimental GVHD,experimental GVHD,prevent
same,number or size of T lymphocyte aggregates after anti-CD3 treatment (proliferation),T lymphocytes [5],does not decrease
same,total number of cells after 72 h,T lymphocytes [5]; 5 μg/ml,26±1 ×10^3
same,total number of cells after 72 h,T lymphocytes [5]; 25 μg/ml,26±2 ×10^3
same,total number of cells after 72 h,T lymphocytes [5]; 50 μg/ml,22±1 ×10^3
same,CXCR4 expression on U937 cells,[6],does not affect
same,binding to antigen presenting cells / MHC class II molecules,MHC class II molecules,binds
same,reducing effect on cytokine production,[7],does not occur
same,in vitro T-cell responses to MBP,T-cell responses to MBP,inhibited
same,production of MMP-9 by T lymphocytes compared to controls,[8],did not affect
TIMP-1: positive control shown to inhibit MMP activity in the zymography assay,inhibition of MMP-9 enzymatic activity (size of gelatinase band in zymogram),MMP-9,inhibit MMP activity
